According to patent US20110162092A1, “COMPOSITION COMPRISED OF AKAP12 AND USES OF AKAP12 MUTANT ZEBRAFISH AS AN ANIMAL MODEL” (SNU RDB FOUNDATION, priority 2008, published 2011):

Assays:
[1] = test system: vein endothelial cells of the AKAP12 knockdown zebrafish; assay: Movement of vein endothelial cells of AKAP12 knockdown zebrafish treated with RhoA signal inhibitor; type: in vivo; settings: 200 uM, 44 hours after fertilization
[2] = test system: Human Umbilical Vein Endothelial Cells (HUVEC); assay: In vitro permeability assay using HUVEC (RITC-labeled dextran, transwell); type: cell-based; settings: AKAP12 siRNA group treated with ROCKOUT, 15 minutes incubation
ve-cadherin = ve-cadherin expression in HUVEC by western-blotting and immunocytochemistry; type: cell-based, human; settings: treated with both siRNA regarding AKAP12 and ROCKOUT
Description: To be specific, in the western-blotting, first, cells were dissolved in lysis buffer containing 10 mM HEPES (pH 7.9), 400 mM NaCl, 0.1 mM EDTA, 5% glycerol, 1 mM DTT (D1-dithiothreitol) and protease inhibitor cocktail, and the proteins in cells were quantified using BCA. From the whole cell lysate prepared as explained above, the proteins in cells were isolated according to molecular weight sizes using sodium dodecyl sulfate-polyacrylamide gel electrophoresis, and the proteins were moved to the polyvinyldifluoride membrane (Millipore). After that, blocking was performed, and the primary antibody was treated overnight (for 16 hours) at 4° C. On the next day, secondary antibodies regarding the primary antibodies were treated at room temperature for 2 hours, respectively, and detected using ECL PLUS (Amersham). As for the primary antibodies, VE-cadherin (Santa Cruz Biotechnology); F-actin (Sigma) were used.
As for the immunochemistry, first, cells were seeded in a 0.1% gelatin-coated slide, rinsed with cold PBS, and fixed for 10 minutes at room temperature with 4% paraformaldehyde. After that, the cells were rinsed again three times with PBS, treated with 0.5% Triton X-100 for 5 minutes, rinsed with PBS-T and underwent blocking at room temperature for 30 minutes with 0.1% blocking solution (Roche). […]

[3] = test system: zebrafish AKAP12 alpha form mRNA; assay: Genetic defect (phenotype) of zebrafish after microinjecting morpholino, alpha form; type: in vivo
Text: (§1) The present inventors prepared morpholino for the zebrafish AKAP12 alpha form mRNA and zebrafish AKAP12 beta form mRNA knockdown. The preparation of the morpholino was ordered to Gene Tools LLC. The method for morpholino preparation is written in Summerton, J. et al., Anti sense & Nucleic Acid Drug Development 7: 187-95, 1997. The prepared morpholino was so prepared to block the characteristic variant regions of each of the alpha and beta forms from binding to the site of splicing and thus block splicing and developing into mature mRNA, in which the alpha form morpholino was so designed to bind adjacent to 339th base of the AKAP12 alpha form as the sequence of […] (SEQ. ID. NO. 7) 25-mer, and the beta form morpholino was so designed to bind adjacent to the 227th base of the AKAP12 beta form as the sequence of […] (SEQ. ID. NO. 8) 25-mer (see FIG. 1).
(§2) The present invention knocked down zebrafish AKAP12 mRNA by microinjecting the prepared morpholino of <Example 3> into the zebrafish and observed the phenotype.
(§3) First, the inventors microinjected 7 ng and 10 ng of morpholino for AKAP12 mRNA alpha form, and microinjected 7.5 ng of morpholino for AKAP12 mRNA beta form.
(§4) Further, after injecting 3.7 ng, 7.5 ng and 10 ng of morpholino for zebrafish AKAP12 alpha and beta forms, the present inventors could confirm that the genetic defect appears in the beta form at about 7.5 ng and alpha form at about 3.7 ng (see FIG. 4).

[4] = test system: zebrafish AKAP12 alpha form; assay: Micro-vasculature defect in brains of AKAP12 alpha form knockdown tg(fli:egfp) zebrafish; type: in vivo; settings: 3 ng morpholino; 10 kDa tetramethylrhodamine-dextran after 3 days
Description: The present inventor knocked down the zebrafish AKAP12 alpha form using the transgenic zebrafish ‘tg(fli:egfp)’ in which green fluoresces selectively in the vein endothelial cells, and observed the defect pattern of the micro-vasculatures in brains. To be specific, the inventors knocked down the zebrafish AKAP12 alpha form by microinjecting 3 ng of morpholino for zebrafish AKAP12 alpha form into the transgenic zebrafish (fli:egfp) embryos, and then after 3 days, microinjected 25 mg/ml of red-fluorescent lysine-fixable tetramethylrhodamine-dextran, 10 kDa through the common cardinal vein of the zebrafish, and then observed through the LSM 510 META NLO confocal microscope (Carl Zeiss, Germany).

[5] = test system: zebrafish AKAP12 alpha form; assay: Vessel defects of AKAP12 knockdown tg(fli:egfp) zebrafish; type: in vivo; settings: 2 ng morpholino; 2000 kDa tetramethylrhodamine-dextran within 48 to 60 hours
Description: The present inventors knocked down the zebrafish AKAP12 alpha and beta forms using the transgenic zebrafish ‘tg(fli:egfp)’ in which green fluoresces selectively in the endothelioyte of the vessels, and observed the defect pattern in the vessels. To be specific, the inventors knocked down the zebrafish AKAP12 alpha and beta forms by microinjecting 2 ng alpha) and 7.5 ng (beta) of morpholino for zebrafish KAAP12 alpha and beta forms, into the transgenic zebrafish ‘fli:egfp’, respectively, and within 48 to 60 hours, microinjected 25 mg/ml of red-fluorescent lysine-fixable tetramethylrhodamine-dextran, 2000 kDa (molecular probes) and observed through the LSM 510 META NLO confocal microscope (Carl Zeiss, Germany).

[6] = test system: zebrafish AKAP12 alpha form; assay: Heart defect of AKAP12 alpha form knockdown tg(cmlc:egfp) zebrafish; type: in vivo; settings: 3.7 ng morpholino, 1.5 days later
Description: The present inventors knocked down zebrafish AKAP12 alpha form using the transgenic zebrafish ‘tg(cmlc:egfp)’ in which green fluoresces characteristically to the light chain of the heat muscles, and observed the heart defects of the zebrafish. That is, the inventors knocked down the zebrafish AKAP12 alpha form by microinjecting 3.7 ng of morpholino for zebrafish AKAP12 alpha form into the transgenic zebrafish (‘tg(cmlc:egfp)’) embryos, and observed the hearts of the zebrafish after 1.5 days later using the LSM 510 META NLO confocal microscope Carl Zeiss, Germany).

[7] = test system: zebrafish AKAP12 alpha form; assay: Hemorrhage of AKAP12 alpha form knockdown zebrafish; type: in vivo
Text: (§5) The present inventors observed the embryos of […] AKAP12 alpha and beta form knockdown zebrafish, and as a result, could observe the bleeding in the 2 to 3 day-old zebrafish.

AKAP12 alpha form mRNA = assay: Zebrafish defect patterns in accordance with morpholino amount, alpha form; type: in vivo
Text: (§6) The present inventors knocked down AKAP12 alpha form mRNA and beta form mRNA using morpholino for zebrafish AKAP12 alpha and beta forms, and observed the defect patterns in accordance with the amounts of morpholino, respectively.

[8] = test system: zebrafish AKAP12 beta form mRNA; assay: Genetic defect (phenotype) of zebrafish after microinjecting morpholino, beta form; type: in vivo
Text: as §1, §2, §3, §4

[9] = test system: zebrafish AKAP12 beta form; assay: Hemorrhage of AKAP12 beta form knockdown zebrafish; type: in vivo; settings: 7.5 ng injected, day 3
Text: as §5

AKAP12 beta form mRNA = assay: Zebrafish defect patterns in accordance with morpholino amount, beta form; type: in vivo
Text: as §6

[10] = morpholino only, control group of rescue test

`c1ccc2c(-c3ccncc3)c[nH]c2c1` [ROCKOUT] was tested, and the “movement of vein endothelial cells” value [1] was “the excessive movement of the vein endothelial cells slowed”, the RITC permeability [2] was “decreased permeability” and the expression of ve-cadherin (ve-cadherin) was “the expression of ve-cadherin increased back”.

In the case of “morpholino for zebrafish AKAP12 alpha form: 25-mer morpholino TCTTACCTGTTAGAGTTATTGTCCC (SEQ. ID. NO. 7), binds adjacent to 339th base of AKAP12 alpha form, blocks splicing (all phosphorodiamidate morpholino (PMO))”, the “mRNA expression pattern of AKAP12 alpha form by RT-PCR” value ([3]; 7 ng and 10 ng injected, by degree of defect) is reported as “the zebrafish with severer degree of defects had lower degree of mRNA expression”, the “phenotype: tail portions and mobility” value ([3]; 7 ng and 10 ng microinjected) is reported as “crooked or shortened tail portions and abnormal mobility” and the defect patterns [3, 10] is reported as “crooked trunks and bleeding”. The defect patterns ([3]; only 4 ng morpholino, control group of rat mRNA rescue) was “defect patterns including crooked and shortened tail and deformed hearts”, the “defect pattern of micro-vasculatures in brains, dextran distribution” value [4] was “non-uniform micro-vasculature in brains and also the red lysine-fixable tetramethylrhodamine-dextran was distributed around the green micro-vasculatures” and the “defect pattern in the vessels, dextran leakage” value [5] was “non-uniform micro-vasculature in the brains and also the red lysine-fixable tetramethylrhodamine-dextran leaked out of the green vessel”. For the same compound, the “heart shape (atriums and ventricles)” value [6] was “elongated atriums and ventricles”, the heartbeats [6] was “non-uniform and weak heartbeats” and the “rate of zebrafish showing hemorrhage” value ([7]; 3 ng injected, day 3) was “approximately 50%”. For the same compound, the “rate of zebrafish with hemorrhage versus amount” value ([7]; 1, 2 and 3 ng in sequence) was “hemorrhage increased as the amount of injected morpholino increased”, the defect pattern (AKAP12 alpha form mRNA; 1 ng and 2 ng) was “bleeding only” and the defect pattern (AKAP12 alpha form mRNA; 4 ng and more) was “decreasing bleeding due to severe defects of hearts and other veins”. The defect pattern (AKAP12 alpha form mRNA; 3 and 4 ng) was “both the bleeding and defects in heart and trunk veins”.

With “morpholino for zebrafish AKAP12 beta form: 25-mer morpholino TACCTTGCCATCTGCGGTTTCTCCA (SEQ. ID. NO. 8), binds adjacent to 227th base of AKAP12 beta form, blocks splicing (all phosphorodiamidate morpholino (PMO))” the “amount of morpholino at which the genetic defect appears” value ([8]; 3.7 ng, 7.5 ng and 10 ng injected) was “about 7.5 ng”, the “phenotype: tail portions and mobility” value ([8]; 7.5 ng microinjected) was “crooked or shortened tail portions and abnormal mobility” and the defect patterns [8, 10] was “crooked trunks and bleeding”. The “rate of zebrafish showing hemorrhage” value [9] was “approximately 27%”, the defect pattern (AKAP12 beta form mRNA; 7.5 ng and 8 ng) was “both the bleeding and defects of heat and trunk veins concurrently” and the defect pattern (AKAP12 beta form mRNA; 9 ng or more) was “only the defects in heart and trunk veins”.
